Test results taken from US10695334B2, “Heteroaromatic carboxamide derivatives as plasma kallikrein inhibitors” (Boehringer Ingelheim International GmbH, priority 2018, dated 2020).

Legend:
Assay type in all cases: biochemical
[1] = target: PKK in kaolin activated human platelet poor plasma (Homo sapiens (Human), UniProt P03952); assay: Inhibition of PKK in kaolin activated human PPP; details: global fit over 25, 75, 250, 750 μg/mL kaolin
Method: Platelet poor plasma (PPP) obtained from human wholeblood, anticoagulated with Na-Citrat, was incubated with various concentrations of the test compound together with either 25, 75, 250, or 750 μg/mL kaolin in assay buffer for 20 min at 37° C. such that for each kaolin dose used a concentration response was obtained for the test compound.

Human PKK [2] = target: T1, Human PKK (Homo sapiens (Human), UniProt P03952); assay: Inhibition of PKK, endpoint assay (human PKK); details: substrate H-Pro-Phe-Arg-AMC, 1 h room temperature
T1 sequence (P03952 391-638): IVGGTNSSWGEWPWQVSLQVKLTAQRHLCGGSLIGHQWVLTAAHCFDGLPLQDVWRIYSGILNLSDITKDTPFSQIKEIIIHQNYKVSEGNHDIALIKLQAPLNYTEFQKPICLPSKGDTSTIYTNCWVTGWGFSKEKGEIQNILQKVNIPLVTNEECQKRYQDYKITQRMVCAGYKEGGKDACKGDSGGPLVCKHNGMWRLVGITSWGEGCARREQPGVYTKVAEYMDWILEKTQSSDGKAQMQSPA
T1 sequence (P03952 20-390 partner): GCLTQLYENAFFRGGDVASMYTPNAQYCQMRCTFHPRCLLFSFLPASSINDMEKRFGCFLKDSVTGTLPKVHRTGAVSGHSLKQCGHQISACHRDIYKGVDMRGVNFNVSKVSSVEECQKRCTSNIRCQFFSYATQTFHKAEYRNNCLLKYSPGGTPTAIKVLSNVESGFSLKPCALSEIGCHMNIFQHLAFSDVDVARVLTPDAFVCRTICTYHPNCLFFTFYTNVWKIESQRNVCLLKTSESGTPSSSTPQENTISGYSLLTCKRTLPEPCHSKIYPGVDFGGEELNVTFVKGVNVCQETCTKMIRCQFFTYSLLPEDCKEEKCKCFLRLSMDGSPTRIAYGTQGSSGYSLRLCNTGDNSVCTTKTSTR
Method: Subsequently, PPACK II (Calbiochem) was added as a stop solution to achieve a final concentration of 1 μM and fluorescence was measured using an Envision Reader (PerkinElmer) with the wavelength excitation setting of 355 nm and the wavelength emission setting of 460 nm.

human TK1 = human TK1 (Homo sapiens (Human), UniProt P06870); assay: Inhibition of TK1 (Ki); details: column head prints IC50, text above the table says Ki values
Sequence of human TK1 (P06870 25-262): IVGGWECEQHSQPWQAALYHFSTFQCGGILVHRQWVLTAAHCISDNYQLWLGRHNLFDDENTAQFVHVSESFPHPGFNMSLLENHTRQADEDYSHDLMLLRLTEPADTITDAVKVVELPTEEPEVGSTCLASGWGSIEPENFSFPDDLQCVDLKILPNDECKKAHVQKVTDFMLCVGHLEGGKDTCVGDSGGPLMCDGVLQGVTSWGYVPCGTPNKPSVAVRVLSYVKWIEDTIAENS
Method: The ability of compounds of formula (I) to inhibit plasma kallikrein (PKK), Factor Xlla (FXIIa), Factor Xla (FXIa), Factor Xa (FXa), Factor Ila (alpha-thrombin; FIIa), plasmin, trypsin, tissue kallikrein 1 (TK1), Factor VIIa (FVIIa), or FVIIa complexed with Tissue Factor, phospholipids and CaCl2 (FVIIa/TF/PL/CaCl2) was determined using the following biochemical assays in assay buffer (100 mM Tris, 150 mM NaCL, adjusted to a pH of 7.8 with HCl, and containing 0.1% (w/v) BSA and 0.05% (v/v) Tween20) in the presence of 1% (v/v) DMSO: EVALUATION OF THE INHIBITION OF PKK USING AN ENDPOINT ASSAY Human PKK (0.01 U/mL; Enzyme Research Laboratories) or rat PKK (0.625 nM; produced in-house) was incubated for 1 h at room temperature with 0.10 μM fluorogenic substrate H-Pro-Phe-Arg-AMC (11295 from Bachem) and various concentrations of the test compound in assay buffer. Subsequently, PPACK II (Calbiochem) was added as a stop solution to achieve a final concentration of 1 μM and fluorescence was measured using an Envision Reader (PerkinElmer) with the wavelength excitation setting of 355 nm and the wavelength emission setting of 460 nm.
Prior to the assay, human TK1 (R&D Systems) was activated by incubation with human trypsin (Calbiochem) in a 1:10,000 ratio for 15 min at 37° C. For assaying TK1 inhibitory activity, activated TK1 (31.25 nM or 1 U/mL) was incubated at 24° C. with 0.1 mM fluorogenic substrate H-Pro-Phe-Arg-AMC (11295 from Bachem) and various concentrations of the test compound in assay buffer. Measurements were performed in a kinetic interval every 2nd minute for 16 min using a Spectramax M5 (Molecular Devices) with the following settings of the wavelength excitation of 350 nm and wavelength emission of 450 nm.
The average Vmax values for the time interval from 2 to 12 min after initiation of the assay (expressed as either delta OD/min for assays using a chromogenic substrate or delta RFU/min for assays using a fluorigenic substrate, respectively) were plotted versus the Log of the concentration in molar of the evaluated inhibitor compound. The pIC50 values were then fitted using a four-parametric fitting procedure using GraphPad Prism (version 6; GraphPad Software, Inc.). Respective Ki values were obtained by correction of the IC50 values for the respective KM value of the used substrate (see Table A for the obtained KM values of the used substrates) using the following formula: […]
(§1) Where the IC50 is in molar and the KM value in mM.

Human PKK [3] = target: T1, Human PKK; assay: Inhibition of PKK (Ki), kinetic assay; details: 24° C., IC50 corrected for KM
Method: Measurements were performed in a kinetic interval every 2nd minute for 16 min using a Spectramax M5 (Molecular Devices) with the following settings of the wavelength excitation of 350 nm and wavelength emission of 450 nm. The number of the compound corresponds to the number of the Example in the experimental section.
The pIC50 values were then fitted using a four-parametric fitting procedure using GraphPad Prism (version 6; GraphPad Software, Inc.).
as §1

Sequence of PKK in kaolin activated human platelet poor plasma (P03952 391-638): as the sequence (P03952 391-638) above
Sequence of PKK in kaolin activated human platelet poor plasma (P03952 20-390 partner): as the sequence (P03952 20-390 partner) above

| SMILES | IC90 [1] [nM] | IC50 (Human PKK [2]) [nM] | IC50 (human TK1) [nM] | Ki (Human PKK [3]) [nM] |
| --- | --- | --- | --- | --- |
| Cc1nc(N2CC3(CC3)C2)ccc1Cn1cc(C(=O)N[C@@H]2CCc3c(C)n[nH]c32)cn1 [Example 11] | 598 | 1 |  |  |
| COCc1nn(Cc2ccc(N3CC4CC4C3)nc2C)cc1C(=O)N[C@@H]1CCc2c(C)n[nH]c21 (stereo partly drawn) [Example 16, 1-[(6-{3-Azabicyclo[3.1.0]hexan-3-yl}-2-methyl-pyridin-3-yl)methyl]-3-(methoxymethyl)-N-[(6R)-3-methyl-1H,4H,5H,6H-cyclopenta[c]pyrazol-6-yl]-1H-pyrazole-4-carboxamide] |  | 0.9 | > 10000 | 0.1 |
| Cc1nc(N2CC3CC3C2)ccc1Cn1cc(C(=O)N[C@@H]2CCc3c(C)n[nH]c32)c2cncnc21 (stereo partly drawn) [Example 17, 7-[(6-{3-Azabicyclo[3.1.0]hexan-3-yl}-2-methyl-pyridin-3-yl)methyl]-N-[(6R)-3-methyl-1H,4H,5H,6H-cylcopenta[c]pyrazol-6-yl]-7H-pyrrolo[2,3-d]pyrimidine-5-carboxamide] |  | 0.9 | > 10000 | 0.1 |
| Cc1nc(N2CC3CC3C2)ccc1Cn1cc(C(=O)N[C@@H]2CCc3c(C)n[nH]c32)c(C)n1 (stereo partly drawn) [Example 19, 1-[(6-{3-Azabicyclo[3.1.0]hexan-3-yl}-2-methyl-pyridin-3-yl)methyl]-3-methyl-N-[(6R)-3-methyl-1H,4H,5H,6H-cyclopenta[c]pyrazol-6-yl]-1H-pyrazole-4-carboxamide] |  | 1 | > 10000 | 0.3 |
| COc1nn(Cc2ccc(N3CC4CC4C3)nc2C)cc1C(=O)N[C@@H]1CCc2c(C)n[nH]c21 (stereo partly drawn) [Example 20, 1-[(6-{3-Azabicyclo[3.1.0]hexan-3-yl}-2-methyl-pyridin-3-yl)methyl]-3-methoxy-N-[(6R)-3-methyl-1H,4H,5H,6H-cyclopenta[c]pyrazol-6-yl]-1H-pyrazole-4-carboxamide] |  | 1 | > 10000 | 0.2 |
| Cc1nc(N2CC3C(C2)C3(F)F)ncc1Cn1cc(C(=O)N[C@@H]2CCc3c(C)n[nH]c32)c2cncnc21 (stereo partly drawn) [Example 21, 7-[(2-{6,6-Difluoro-3-azabicyclo[3.1.0]hexan-3-yl}-4-methylpyrimidin-5-yl)methyl]-N-[(6R)-3-methyl-1H,4H,5H,6H-cyclopenta[c]pyrazol-6-yl]-7H-pyrrolo[2,3-d]pyrimidine-5-carboxamide] |  | 1 | > 10000 | 0.1 |
| COCc1nn(Cc2ccc(N3CC4(CC4)C3)nc2C)cc1C(=O)N[C@@H]1CCc2c(C)n[nH]c21 [Example 22, 1-[(6-{5-Azaspiro[2.3]hexan-5-yl}-2-methylpyridin-3-yl)methyl]-3-(methoxymethyl)-N-[(6R)-3-methyl-1H,4H,5H,6H-cyclopenta[c]pyrazol-6-yl]-1H-pyrazole-4-carboxamide] |  | 2 | > 10000 | 0.1 |
| Cc1nc(N2CC3CC3C2)ncc1Cn1cc(C(=O)N[C@@H]2CCc3c(C)n[nH]c32)c2cncnc21 (stereo partly drawn) [Example 23, 7-[(2-{3-Azabicyclo[3.1.0]hexan-3-yl}-4-methyl-pyrimidin-5-yl)methyl]-N-[(6R)-3-methyl-1H,4H,5H,6H-cyclopenta[c]pyrazol-6-yl]-7H-pyrrolo[2,3-d]pyrimidine-5-carboxamide] |  | 2 | > 10000 | 0.3 |
| Cc1nc(N2CC(C)(C)C2)ccc1Cn1cc(C(=O)N[C@@H]2CCc3c2n[nH]c3C)cn1 [Example 67, 1-{[6-(3,3-Dimethylazetidin-1-yl)-2-methylpyridin-3-yl]methyl}-N-[(6R)-3-methyl-2H,4H,5H,6H-cyclopenta[c]pyrazol-6-yl]-1H-pyrazole-4-carboxamide] | 545 | 2 |  | 1 |
